What all share (type): protein assay
Test [1] has as its target T1, Alpha-1,2-mannosidase (BT_1769) (Bacteroides thetaiotaomicron) (UniProt Q8A6V7).
T1 sequence (whole entry): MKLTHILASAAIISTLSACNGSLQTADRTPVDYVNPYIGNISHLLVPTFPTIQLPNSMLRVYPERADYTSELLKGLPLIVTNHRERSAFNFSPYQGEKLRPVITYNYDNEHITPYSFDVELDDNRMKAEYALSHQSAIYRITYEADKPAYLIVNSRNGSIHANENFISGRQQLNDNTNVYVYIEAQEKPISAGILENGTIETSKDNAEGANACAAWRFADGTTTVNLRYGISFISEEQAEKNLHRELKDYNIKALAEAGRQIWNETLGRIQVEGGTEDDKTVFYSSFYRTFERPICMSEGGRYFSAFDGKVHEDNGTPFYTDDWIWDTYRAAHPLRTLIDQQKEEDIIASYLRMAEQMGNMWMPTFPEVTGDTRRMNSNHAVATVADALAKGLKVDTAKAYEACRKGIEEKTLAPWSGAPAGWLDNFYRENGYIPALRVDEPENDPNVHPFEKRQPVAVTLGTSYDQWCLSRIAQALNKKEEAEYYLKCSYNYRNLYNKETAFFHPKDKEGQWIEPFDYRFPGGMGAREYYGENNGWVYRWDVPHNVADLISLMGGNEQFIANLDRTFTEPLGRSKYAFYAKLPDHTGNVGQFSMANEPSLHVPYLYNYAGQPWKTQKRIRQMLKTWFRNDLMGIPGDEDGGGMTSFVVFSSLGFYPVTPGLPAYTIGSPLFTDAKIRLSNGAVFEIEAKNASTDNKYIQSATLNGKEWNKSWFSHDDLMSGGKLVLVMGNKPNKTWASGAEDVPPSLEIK
Put plainly: Activity of Bacteroides thetaiotaomicron GH92 alpha-mannosidase GH92 alpha-mannosidase 1769 assessed as mannose release at 1 mM after 16 hrs by HPLC relative to untreated control after 16 hrs by HPLC.

Test [2] addresses T2, Glycoside hydrolase family 92 (BT_3963) (Bacteroides thetaiotaomicron) (UniProt Q8A0Q8).
T2 sequence (whole entry): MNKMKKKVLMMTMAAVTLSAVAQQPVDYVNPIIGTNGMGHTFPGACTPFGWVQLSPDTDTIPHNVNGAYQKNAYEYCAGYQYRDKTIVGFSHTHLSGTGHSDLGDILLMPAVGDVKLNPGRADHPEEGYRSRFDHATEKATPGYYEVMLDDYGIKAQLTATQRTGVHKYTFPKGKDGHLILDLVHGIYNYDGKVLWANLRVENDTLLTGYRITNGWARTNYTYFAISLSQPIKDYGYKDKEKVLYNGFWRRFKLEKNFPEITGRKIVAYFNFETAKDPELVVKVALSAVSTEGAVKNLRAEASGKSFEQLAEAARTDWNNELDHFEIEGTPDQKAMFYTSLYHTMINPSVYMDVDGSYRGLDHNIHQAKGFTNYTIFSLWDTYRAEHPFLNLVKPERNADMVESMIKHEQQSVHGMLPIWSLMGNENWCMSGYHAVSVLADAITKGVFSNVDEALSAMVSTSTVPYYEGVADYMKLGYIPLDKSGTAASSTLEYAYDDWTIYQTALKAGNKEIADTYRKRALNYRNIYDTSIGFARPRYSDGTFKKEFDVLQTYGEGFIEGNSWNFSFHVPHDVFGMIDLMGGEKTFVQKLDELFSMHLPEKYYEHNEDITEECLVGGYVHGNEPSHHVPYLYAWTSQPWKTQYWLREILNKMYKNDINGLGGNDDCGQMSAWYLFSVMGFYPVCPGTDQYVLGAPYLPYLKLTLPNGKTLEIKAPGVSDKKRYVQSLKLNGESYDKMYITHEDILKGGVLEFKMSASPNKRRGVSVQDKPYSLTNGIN
Kind of test: Activity of Bacteroides thetaiotaomicron GH92 alpha-mannosidase GH92 alpha-mannosidase 3963 assessed as mannose release at 1 mM after 16 hrs by HPLC relative to untreated control after 16 hrs by HPLC.

The target of test [3] is T3, Alpha-1,2-mannosidase, putative (BT_3130) (Bacteroides thetaiotaomicron) (UniProt Q8A325).
T3 sequence (whole entry): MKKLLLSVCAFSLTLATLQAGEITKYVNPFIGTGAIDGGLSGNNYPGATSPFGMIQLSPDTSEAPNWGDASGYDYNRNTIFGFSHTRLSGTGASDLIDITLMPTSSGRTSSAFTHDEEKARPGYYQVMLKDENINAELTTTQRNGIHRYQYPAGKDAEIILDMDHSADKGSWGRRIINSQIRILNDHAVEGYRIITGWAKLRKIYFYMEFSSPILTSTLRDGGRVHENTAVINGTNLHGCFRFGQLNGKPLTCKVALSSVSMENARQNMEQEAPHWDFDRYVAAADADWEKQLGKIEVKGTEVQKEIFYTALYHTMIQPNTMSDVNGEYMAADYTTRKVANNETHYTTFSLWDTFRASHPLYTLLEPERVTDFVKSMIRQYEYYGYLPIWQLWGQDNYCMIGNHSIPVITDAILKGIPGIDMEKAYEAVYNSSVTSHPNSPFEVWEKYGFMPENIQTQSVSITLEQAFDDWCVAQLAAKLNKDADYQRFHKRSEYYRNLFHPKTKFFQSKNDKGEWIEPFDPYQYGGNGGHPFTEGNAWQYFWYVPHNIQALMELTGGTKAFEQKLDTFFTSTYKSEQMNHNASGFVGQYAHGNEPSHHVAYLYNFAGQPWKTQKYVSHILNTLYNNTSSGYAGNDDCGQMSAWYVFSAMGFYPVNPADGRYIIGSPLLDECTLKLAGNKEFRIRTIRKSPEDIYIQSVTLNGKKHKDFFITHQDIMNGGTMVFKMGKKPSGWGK
Put plainly: Activity of Bacteroides thetaiotaomicron GH92 alpha-mannosidase GH92 alpha-mannosidase 3130 assessed as mannose release at 1 mM after 16 hrs by HPLC relative to untreated control after 16 hrs by HPLC.

The structures appear in SMILES notation. Calls of active or inactive are those of the source. The calls are words filed in the database; no cut-off is given here.

For the compound `OC[C@H]1O[C@H](O[C@H]2[C@H](O)[C@H](O)[C@@H](O)O[C@@H]2CO)[C@@H](O)[C@@H](O)[C@@H]1O`, the Activity worked out at 0.026% in test [1] and 23% in test [3]. Moreover, in test [2], the outcome was inactive.

Turning to `OC[C@H]1O[C@H](O[C@H]2[C@@H](O)[C@H](O)[C@@H](CO)O[C@@H]2O)[C@@H](O)[C@@H](O)[C@@H]1O`, the Activity worked out at 0.0023% in test [1] and 4.3% in test [3]. The result in test [2] was inactive.

In the case of `OC[C@H]1O[C@H](OC[C@H]2O[C@H](O)[C@@H](O)[C@@H](O)[C@@H]2O)[C@@H](O)[C@@H](O)[C@@H]1O`, the result in test [1] and in test [2] was inactive. Further, the Activity in test [3] was 21%.

In the case of `OC[C@H]1O[C@H](O[C@@H]2[C@H](O)[C@@H](O)O[C@H](CO)[C@H]2O)[C@@H](O)[C@@H](O)[C@@H]1O`, in test [2], the result was inactive.
